Results on 36 compounds are retold here after patent US20060128662A1, “Novel compounds for treatment of obesity” (Novo Nordisk A/S, priority 2003, published 2006).

SMILES strings stand for the structures. Some results are limits rather than exact numbers.

This assay has as its system FSK-4 cells. The assay can be described thus: Assay (I): Glucose utilisation in a human epithelia cell line (FSK4 cells), D-(6-3H(N))-glucose. As to conditions: 24 hours incubation, Hill equation, read-out: GlucosFSK4 EC50. In kind it is cell-based. The protocol:
Assay (I): Glucose Utilisation in a Human Epithelia Cell Line (FSK4 cells)
The ^3H-proton will first be released in the TCA cyclus and transported to the respiratory chain where it will be incorporated into water. The water is thereafter separated from the D-(6-^3H(N))-glucose by evaporation.
FSK-4 cells obtained from ATCC (Maryland, USA), are cultured in growth medium (McCoy's medium with the following addition 100 units/ml penicillin and streptomycin and 10% FCS (fetal calf serum)) at 37° C. and 5% CO2.
The cells are then incubated for another 24 hours at 37° C. and 5% CO2.
The half maximal concentration (EC50) and maximal efficacy (Emax) are calculated using the Hill equation in GraphPad Prism 3.0 (GraphPad software, Inc.). […] From the percentage increase in glucose utilisation the linear slope is calculated using the Michaelis-Menten equation.

One may read the EC50 as the concentration at which the effect is half-maximal. As to `CC(C)(C)c1cc(/C=C(\C#N)S(=O)(=O)c2cccs2)cc(C(C)(C)C)c1O` [Example 23, (E)-3-(3,5-Di-tert-butyl-4-hydroxy-phenyl)-2-(thiophene-2-sulfonyl)-acrylonitrile], the EC50 worked out at 1200 nM.

For `CC(C)(C)c1cc(/C=C(\C#N)S(=O)(=O)/C(C#N)=C/c2cc(C(C)(C)C)c(O)c(C(C)(C)C)c2)cc(C(C)(C)C)c1O` [Example 22], the EC50 stood at 400 nM.

Turning to `CC(C)(C)c1cc(/C=C(\C#N)S(=O)(=O)c2ccc(N)cc2)cc(C(C)(C)C)c1O` [Example 20, (E)-2-(4-Amino-benzenesulfonyl)-3-(3,5-di-tert-butyl-4-hydroxy-phenyl)-acrylonitrile], the EC50 turned out to be 2800 nM.

As to `CC1COCC(C)N1C(=O)c1ccc(S(=O)(=O)/C(C#N)=C/c2cc(C(C)(C)C)c(O)c(C(C)(C)C)c2)cc1` (stereo not drawn) [Example 27, 3-(3,5-Di-tert-butyl-4-hydroxy-phenyl)-2-[4-(3,5-dimethyl-morpholine-4-carbonyl)-benzenesulfonyl]-acrylonitrile], the EC50 was 3500 nM.

Take `CC(C)(C)c1cc(C=C(C#N)S(=O)(=O)c2cc(C(C)(C)C)c(O)c(C(C)(C)C)c2)cc(C(C)(C)C)c1O` [Example 35, 2-(3,5-Di-tert-butyl-4-hydroxy-benzenesulfonyl)-3-(3,5-di-tert-butyl-4-hydroxy-phenyl)-acrylonitrile]: the EC50 is 3300 nM.

As for `CC(C)(C)c1cc(/C=C(\C#N)S(=O)(=O)c2ccc(OC(F)(F)F)cc2)cc(C(C)(C)C)c1O` [Example 11, (E)-3-(3,5-Di-tert-butyl-4-hydroxy-phenyl)-2-(4-trifluoromethoxy-benzenesulfonyl)-acrylonitrile], the EC50 came to 2200 nM.

As for `CC(C)(C)c1cc(/C=C(\C#N)S(=O)(=O)c2ccc(C(=O)N(CCO)CCO)cc2)cc(C(C)(C)C)c1O` [Example 26], the EC50 came to 3700 nM.

For `CC(C)c1ccc(S(=O)(=O)/C(C#N)=C/c2cc(C(C)(C)C)c(O)c(C(C)(C)C)c2)cc1` [Example 34, 3-(3,5-Di-tert-butyl-4-hydroxy-phenyl)-2-(4-isopropyl-benzenesulfonyl)-acrylonitrile], the EC50 was determined as 2300 nM.

Consider `CC(C)(C)c1cc(/C=C(\C#N)S(=O)(=O)c2ccc(/C=C/c3ccccc3)cc2)cc(C(C)(C)C)c1O` [Example 51, 3-(3,5-Di-tert-butyl-4-hydroxy-phenyl)-2-(4-styryl-benzenesulfonyl)-acrylonitrile], for which the EC50 was 900 nM.

Consider `CN(C)C(=O)c1ccc(S(=O)(=O)/C(C#N)=C/c2cc(C(C)(C)C)c(O)c(C(C)(C)C)c2)cc1` [Example 14], for which the EC50 was found to be 2300 nM.

Regarding `CC(C)(C)c1cc(/C=C(\C#N)S(=O)(=O)c2ccc(Cl)cn2)cc(C(C)(C)C)c1O` [Example 41, 2-(5-Chloro-pyridine-2-sulfonyl)-3-(3,5-di-tert-butyl-4-hydroxy-phenyl)-acrylonitrile], the EC50 worked out at 900 nM.

`N#C/C(=C\c1ccc(O)c([N+](=O)[O-])c1)S(=O)(=O)c1ccc(Cl)cc1` [Example 4, (E)-2-(4-Chloro-benzenesulfonyl)-3-(4-hydroxy-3-nitro-phenyl)-acrylonitrile]: the EC50 was more than 10000 nM.

As to `CC(C)(C)c1cc(/C=C(\C#N)S(=O)(=O)c2ccc(C(=O)NCCO)cc2)cc(C(C)(C)C)c1O` [Example 17], the EC50 stood at 7400 nM.

Turning to `CC(C)(C)c1cc(/C=C(\C#N)S(=O)(=O)c2ccc(C3CC=CO3)cc2)cc(C(C)(C)C)c1O` (stereo not drawn) [Example 49, 3-(3,5-Di-tert-butyl-4-hydroxy-phenyl)-2-[4-(2,3-dihydro-furan-2-yl)-benzenesulfonyl]-acrylonitrile], the concentration for a half-maximal effect (EC50) was determined as 2200 nM.

Regarding `COc1cccc(S(=O)(=O)/C(C#N)=C/c2cc(C(C)(C)C)c(O)c(C(C)(C)C)c2)c1` [Example 47, 3-(3,5-Di-tert-butyl-4-hydroxy-phenyl)-2-(3-methoxy-benzenesulfonyl)-acrylonitrile], the EC50 turned out to be 800 nM.

With `CC(C)(C)c1cc(/C=C(\C#N)S(=O)(=O)Cc2ccc(Cl)cc2)cc(C(C)(C)C)c1O` [Example 24, (E)-2-(4-Chloro-phenylmethanesulfonyl)-3-(3,5-di-tert-butyl-4-hydroxy-phenyl)-acrylonitrile], the EC50 came to 700 nM.

In the case of `CC(C)CO/C=C/c1ccc(S(=O)(=O)/C(C#N)=C/c2cc(C(C)(C)C)c(O)c(C(C)(C)C)c2)cc1` [Example 52, 3-(3,5-Di-tert-butyl-4-hydroxy-phenyl)-2-[4-(2-isobutoxy-vinyl)-benzenesulfonyl]-acrylonitrile], the EC50 was determined as 1000 nM.

As to `CC(C)(C)c1cc(/C=C(\C#N)S(=O)(=O)Cc2ccco2)cc(C(C)(C)C)c1O` [Example 31, 3-(3,5-Di-tert-butyl-4-hydroxy-phenyl)-2-(furan-2-ylmethanesulfonyl)-acrylonitrile], the EC50 was found to be 2000 nM.

On to `CC(C)(C)c1cc(/C=C(\C#N)S(=O)(=O)c2ccc(Cl)cc2)cc([N+](=O)[O-])c1O` [Example 12, (E)-3-(3-tert-Butyl-4-hydroxy-5-nitro-phenyl)-2-(4-chloro-benzenesulfonyl)-acrylonitrile], for which the EC50 worked out at 6000 nM.

As for `CC(C)(C)c1cc(/C=C(\C#N)S(=O)(=O)c2ccccc2C(=O)O)cc(C(C)(C)C)c1O` [Example 42], the EC50 was found to be 9000 nM.

Consider `CC1CN(C(=O)c2ccc(S(=O)(=O)/C(C#N)=C/c3cc(C(C)(C)C)c(O)c(C(C)(C)C)c3)cc2)CC(C)O1` (stereo not drawn) [Example 18, (E)-3-(3,5-Di-tert-butyl-4-hydroxy-phenyl)-2-[4-(2,6-dimethyl-morpholine-4-carbonyl)-benzenesulfonyl]-acrylonitrile], for which the EC50 was 1700 nM.

As for `C/C(=C(/C#N)S(=O)(=O)c1ccc(Cl)cc1)c1cc(C(C)(C)C)c(O)c(C(C)(C)C)c1` [Example 7, (E/Z)-2-(4-Chloro-benzenesulfonyl)-3-(3,5-di-tert-butyl-4-hydroxy-phenyl)-but-2-enenitrile], the EC50 was 10000 nM.

As to `Cc1ccc(S(=O)(=O)/C(C#N)=C/c2cc(C(C)(C)C)c(O)c(C(C)(C)C)c2)cc1` [Example 33, 3-(3,5-Di-tert-butyl-4-hydroxy-phenyl)-2-(toluene-4-sulfonyl)-acrylonitrile], the 50% effective concentration (EC50) amounted to 1100 nM.

For `CC(C)(C)c1cc(/C=C(\C#N)S(=O)(=O)c2ccccc2C(=O)N2CCOCC2)cc(C(C)(C)C)c1O` [Example 44, 3-(3,5-Di-tert-butyl-4-hydroxy-phenyl)-2-[2-(morpholine-4-carbonyl)-benzenesulfonyl]-acrylonitrile], the EC50 is 3000 nM.

With `COCCN(CCOC)C(=O)c1ccc(S(=O)(=O)/C(C#N)=C/c2cc(C(C)(C)C)c(O)c(C(C)(C)C)c2)cc1` [Example 13], the concentration giving a half-maximal response (EC50) was found to be 4000 nM.

`CC(C)(C)c1cc(/C=C(\C#N)S(=O)(=O)c2ccc(C(=O)N3CCOCC3)cc2)cc(C(C)(C)C)c1O` [Example 19, (E)-3-(3,5-Di-tert-butyl-4-hydroxy-phenyl)-2-[4-(morpholine-4-carbonyl)-benzenesulfonyl]-acrylonitrile]: the EC50 came to 5100 nM.

As to `CC(C)(C)c1cc(/C=C(\C#N)S(=O)(=O)c2ccccc2OC(F)(F)F)cc(C(C)(C)C)c1O` [Example 40, 3-(3,5-Di-tert-butyl-4-hydroxy-phenyl)-2-(2-trifluoromethoxy-benzenesulfonyl)-acrylonitrile], the EC50 is 600 nM.

Consider `CC(O)CN(CC(C)O)C(=O)c1ccc(S(=O)(=O)/C(C#N)=C/c2cc(C(C)(C)C)c(O)c(C(C)(C)C)c2)cc1` (stereo not drawn) [Example 15], for which the EC50 is 10000 nM.

Regarding `CC(C)(C)c1cc(/C=C(\C#N)S(=O)(=O)c2cccc(C(=O)N3CCOCC3)c2)cc(C(C)(C)C)c1O` [Example 45, 3-(3,5-Di-tert-butyl-4-hydroxy-phenyl)-2-[3-(morpholine-4-carbonyl)-benzenesulfonyl]-acrylonitrile], the EC50 is 3000 nM.

Turning to `COc1ccc(S(=O)(=O)/C(C#N)=C/c2cc(C(C)(C)C)c(O)c(C(C)(C)C)c2)cc1OC` [Example 48, 3-(3,5-Di-tert-butyl-4-hydroxy-phenyl)-2-(3,4-dimethoxy-benzenesulfonyl)-acrylonitrile], the concentration giving a half-maximal response (EC50) amounted to 1500 nM.

`COc1ccc(S(=O)(=O)/C(C#N)=C/c2cc(C(C)(C)C)c(O)c(C(C)(C)C)c2)cc1` [Example 46, 3-(3,5-Di-tert-butyl-4-hydroxy-phenyl)-2-(4-methoxy-benzenesulfonyl)-acrylonitrile]: the EC50 was 1000 nM.

With `CC(C)(C)c1cc(/C=C(\C#N)S(=O)(=O)c2cccc(OC(F)(F)F)c2)cc(C(C)(C)C)c1O` [Example 39, 3-(3,5-Di-tert-butyl-4-hydroxy-phenyl)-2-(3-trifluoromethoxy-benzenesulfonyl)-acrylonitrile], the EC50 was found to be 500 nM.

For `CC(C)(C)c1cc(/C=C(\C#N)S(=O)(=O)c2ccc([N+](=O)[O-])cc2)cc(C(C)(C)C)c1O` [Example 9, (E)-3-(3,5-Di-tert-butyl-4-hydroxy-phenyl)-2-(4-nitro-benzenesulfonyl)-acrylonitrile], the EC50 stood at 1400 nM.

As for `CC(C)(C)c1cc(/C=C(\C#N)S(=O)(=O)c2ccccn2)cc(C(C)(C)C)c1O` [Example 3, (E)-3-(3,5-Di-tert!-butyl-4-hydroxy-phenyl)-2-(pyridine-2-sulfonyl)-acrylonitrile], the concentration giving a half-maximal response (EC50) is 9000 nM.

Take `CC(C)(C)c1cc(/C=C(\C#N)S(=O)(=O)c2cccc3ccccc23)cc(C(C)(C)C)c1O` [Example 30, 3-(3,5-Di-tert-butyl-4-hydroxy-phenyl)-2-(naphthalene-1-sulfonyl)-acrylonitrile]: the EC50 amounted to 1000 nM.

Take `CC(C)(C)c1cc(/C=C(\C#N)S(=O)(=O)c2ccc(S(C)(=O)=O)cc2)cc(C(C)(C)C)c1O` [Example 38, 3-(3,5-Di-tert-butyl-4-hydroxy-phenyl)-2-(4-methanesulfonyl-benzenesulfonyl)-acrylonitrile]: the EC50 amounted to 700 nM.
